Among the test systems are A498 renal; IGROV1 ovarian; ACHN renal; SNB-19 CNS; SR leukemia; OVCAR-5 ovarian; SF-539 CNS; SF-268 CNS; NCI-H226 lung; HOP-62 NSCLC; HCC-2998 colon; DU-145 prostate; HCT-116 colon; SK-MEL-28 melanoma; SW-620 colon.
What all share (experiment): NCI-60 cell line screen, 48 h

Each structure is given as a SMILES string.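 These data come from cells grown in 96-well plates and exposed to compound for 48 hours at five concentrations. TGI marks complete inhibition of growth.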 Where a SMILES comes first, the peptide text is derived from it. The star is where a group is joined. Boc = CC(C)(C)OC(=O)*; OBn = c1ccc(CO*)cc1 Where only a bound is given, the exact number is not on record here.

For the compound `O=C1/C(=C/c2ccccc2)CCC/C1=C\c1ccc(O)c(CN2CCCCC2)c1`, the TGI in the experiment with A498 renal was 12.5 µM; in the experiment with IGROV1 ovarian, 11.2 µM; in the experiment with ACHN renal, 3.8 µM; in the experiment with SNB-19 CNS it was 26 µM; in the experiment on SR leukemia it was 6.38 µM; in the experiment on OVCAR-5 ovarian, 37.9 µM. Also, the TGI in the experiment with SF-539 CNS stood at 8.95 µM; in the experiment on SF-268 CNS, 17 µM; with NCI-H226 lung it was 16.9 µM; in the experiment with HOP-62 NSCLC, 32 µM; in the experiment with HCC-2998 colon, 5.46 µM; with DU-145 prostate, 7.44 µM. Further, the TGI came to 2.97 µM in the experiment on HCT-116 colon, 17.5 µM in the experiment with SK-MEL-28 melanoma and 5.94 µM in the experiment on SW-620 colon.

With `NC(=O)NC(=O)c1cccc(NC(=O)CF)c1`, the TGI in the experiment on A498 renal, with IGROV1 ovarian, in the experiment with ACHN renal, in the experiment on SNB-19 CNS, with SR leukemia and in the experiment with OVCAR-5 ovarian was above 100 µM in each case. Further, the TGI in the experiment on SF-539 CNS, in the experiment with SF-268 CNS, in the experiment with NCI-H226 lung, in the experiment with HOP-62 NSCLC, with HCC-2998 colon and with DU-145 prostate was above 100 µM throughout. Besides, the TGI with HCT-116 colon, in the experiment with SK-MEL-28 melanoma and in the experiment with SW-620 colon was above 100 µM each time.

For `c1ccc(C2OCC(OC3CCCCO3)CO2)cc1` (stereo not drawn), the TGI in the experiment on A498 renal, with IGROV1 ovarian, with ACHN renal, with SNB-19 CNS, with SR leukemia and in the experiment with OVCAR-5 ovarian was above 100 µM each time. In addition, the TGI in the experiment on SF-539 CNS, in the experiment with SF-268 CNS, in the experiment with NCI-H226 lung, with HOP-62 NSCLC, in the experiment on HCC-2998 colon and in the experiment with DU-145 prostate was above 100 µM in each case. In addition, the TGI in the experiment with HCT-116 colon, with SK-MEL-28 melanoma and in the experiment with SW-620 colon was above 100 µM throughout.

With `O=c1[nH]c(-c2ccccc2)nc2c1sc1nc3ccccc3n12`, the TGI in the experiment with A498 renal, in the experiment on IGROV1 ovarian, in the experiment on ACHN renal, in the experiment with SNB-19 CNS, with SR leukemia and with OVCAR-5 ovarian was above 100 µM each time. The TGI in the experiment with SF-539 CNS, in the experiment with SF-268 CNS, in the experiment with NCI-H226 lung, with HCC-2998 colon, with DU-145 prostate and with HCT-116 colon was above 100 µM throughout. Also, the TGI with SK-MEL-28 melanoma and in the experiment with SW-620 colon was above 100 µM in each case.

Turning to `O=C1C(=C(I)I)c2ccccc2-c2ccccc21`, the TGI with A498 renal was determined as 30.6 µM; in the experiment with IGROV1 ovarian, 17.6 µM; with ACHN renal, 5.59 µM; in the experiment on SNB-19 CNS, 27.5 µM; in the experiment on SR leukemia, 10.2 µM; in the experiment on OVCAR-5 ovarian, 17.1 µM. Besides, the TGI in the experiment with SF-539 CNS was found to be 3.61 µM; with SF-268 CNS it was 20.4 µM; in the experiment on NCI-H226 lung, 36.4 µM; in the experiment with HOP-62 NSCLC it was 24.3 µM; in the experiment on HCC-2998 colon it was 7.54 µM; in the experiment on DU-145 prostate, 11.2 µM. The TGI in the experiment on HCT-116 colon was determined as 6.55 µM; with SK-MEL-28 melanoma it was 7.94 µM; in the experiment with SW-620 colon it was 8.13 µM.

For `CC1=N[C@](C)(C2CC3C=CC2C3=O)COC1=O` (stereo partly drawn), the TGI in the experiment with A498 renal, in the experiment with IGROV1 ovarian, with ACHN renal, in the experiment with SNB-19 CNS, in the experiment on SR leukemia and in the experiment with OVCAR-5 ovarian was above 100 µM throughout. Moreover, the TGI in the experiment on SF-539 CNS, in the experiment on SF-268 CNS, in the experiment with NCI-H226 lung, in the experiment with HOP-62 NSCLC, in the experiment with HCC-2998 colon and in the experiment on DU-145 prostate was above 100 µM each time. For the same compound, the TGI with HCT-116 colon, with SK-MEL-28 melanoma and with SW-620 colon was above 100 µM each time.

As for `Cn1cnc(N2CCCC2)c(C#N)c1=O`, the TGI in the experiment with A498 renal, with IGROV1 ovarian, in the experiment on ACHN renal, in the experiment on SNB-19 CNS, in the experiment with SR leukemia and with OVCAR-5 ovarian was above 100 µM each time. The TGI in the experiment with SF-539 CNS, in the experiment with SF-268 CNS, in the experiment with NCI-H226 lung, with HOP-62 NSCLC, in the experiment with HCC-2998 colon and in the experiment with DU-145 prostate was above 100 µM each time. Further, the TGI in the experiment on HCT-116 colon, in the experiment with SK-MEL-28 melanoma and with SW-620 colon was above 100 µM each time.

As for `C=C=C(Sc1ccccc1)C(C)(C)OC(C)=O`, the TGI with A498 renal was 42.6 µM; in the experiment on IGROV1 ovarian, 33.3 µM; in the experiment with SNB-19 CNS, 40.4 µM; in the experiment on SR leukemia, above 100 µM; in the experiment with OVCAR-5 ovarian, 45.2 µM; with SF-539 CNS, 29.8 µM. Moreover, the TGI was found to be 27.7 µM in the experiment with SF-268 CNS; 45.4 µM in the experiment on NCI-H226 lung; 43.1 µM in the experiment on HCC-2998 colon; 90.2 µM with DU-145 prostate; 27.7 µM in the experiment with HCT-116 colon; 31.4 µM with SK-MEL-28 melanoma. The TGI in the experiment on SW-620 colon was determined as 33.7 µM.

With `O=C(/C=C/c1ccccc1)CSc1nc2ccc(I)cc2c(=O)n1Cc1ccccc1`, the TGI was 46.4 µM with A498 renal; above 68 µM with IGROV1 ovarian; above 100 µM in the experiment on ACHN renal; above 100 µM in the experiment with SNB-19 CNS; 33.3 µM with SR leukemia; above 100 µM in the experiment on OVCAR-5 ovarian. Besides, the TGI was above 100 µM in the experiment on SF-539 CNS; 51.9 µM in the experiment with SF-268 CNS; above 84.4 µM in the experiment with NCI-H226 lung; 59.1 µM with HOP-62 NSCLC; 66.9 µM in the experiment on HCC-2998 colon; above 100 µM in the experiment on DU-145 prostate. The TGI in the experiment with HCT-116 colon, in the experiment with SK-MEL-28 melanoma and with SW-620 colon was above 100 µM throughout.

As to `c1ccc2c(c1)nc1n2C2CCC(C2)N1` (stereo not drawn), the TGI with A498 renal, in the experiment on IGROV1 ovarian, in the experiment with SNB-19 CNS, in the experiment with SR leukemia, in the experiment on OVCAR-5 ovarian and in the experiment with SF-539 CNS was above 10 µM throughout. Also, the TGI in the experiment on SF-268 CNS, in the experiment with NCI-H226 lung, in the experiment with HOP-62 NSCLC, with HCC-2998 colon, with DU-145 prostate and with HCT-116 colon was above 10 µM each time. Besides, the TGI in the experiment with SK-MEL-28 melanoma and with SW-620 colon was above 10 µM in each case.

As to `COC(C)(C)CCc1[nH]c2ccccc2c1CC(=O)NCCc1cncn1C`, the TGI in the experiment on A498 renal, in the experiment with IGROV1 ovarian, in the experiment on ACHN renal, with SNB-19 CNS, in the experiment on SR leukemia and in the experiment with OVCAR-5 ovarian was above 100 µM throughout. Moreover, the TGI in the experiment with SF-539 CNS, in the experiment with SF-268 CNS, in the experiment on NCI-H226 lung, in the experiment with HCC-2998 colon, in the experiment with DU-145 prostate and in the experiment on HCT-116 colon was above 100 µM each time. Besides, the TGI in the experiment with SK-MEL-28 melanoma and in the experiment with SW-620 colon was above 100 µM each time.

`CC(C)CC(NC(=O)C(CCI)Cc1ccccc1)C(=O)Nc1ccccc1` (stereo not drawn): the TGI in the experiment with A498 renal, in the experiment on IGROV1 ovarian, in the experiment with ACHN renal, in the experiment on SNB-19 CNS, with SR leukemia and in the experiment with OVCAR-5 ovarian was above 100 µM in each case. Also, the TGI in the experiment on SF-539 CNS, in the experiment with NCI-H226 lung, in the experiment with HCC-2998 colon, in the experiment with DU-145 prostate, in the experiment on HCT-116 colon and with SK-MEL-28 melanoma was above 100 µM in each case. The same compound displayed a TGI in the experiment on SW-620 colon above 100 µM.

On to `CC(NC(=O)C(Cc1ccccc1)NC(=O)C(Cc1ccccc1)NC(=O)OC(C)(C)C)C(=O)OCc1ccccc1` (stereo not drawn) (Boc-Phe-Phe-Ala-OBn; configuration not given here), for which the TGI in the experiment with A498 renal, with IGROV1 ovarian, in the experiment with SR leukemia, in the experiment on OVCAR-5 ovarian, in the experiment on SF-539 CNS and in the experiment with SF-268 CNS was above 100 µM throughout. For the same compound, the TGI in the experiment with NCI-H226 lung was 84 µM; in the experiment on HOP-62 NSCLC, above 100 µM; with HCC-2998 colon, above 100 µM; in the experiment with DU-145 prostate it was above 100 µM; in the experiment with HCT-116 colon, above 100 µM; with SW-620 colon, above 100 µM.

In the case of `CC(C)C/C=C/C1=NN(c2cccc(S(=O)(=O)O)c2)C2(C1)SCC(=O)N2c1nc2ccccc2s1` (stereo not drawn), the TGI is 88.2 µM in the experiment on A498 renal; above 100 µM in the experiment with IGROV1 ovarian; above 100 µM in the experiment with ACHN renal; above 100 µM with SNB-19 CNS; 74.5 µM in the experiment with SR leukemia; above 100 µM in the experiment on OVCAR-5 ovarian. Also, the TGI in the experiment on SF-539 CNS, in the experiment on SF-268 CNS, in the experiment with NCI-H226 lung, with HCC-2998 colon, in the experiment on DU-145 prostate and in the experiment on HCT-116 colon was above 100 µM throughout. Further, the TGI with SK-MEL-28 melanoma and in the experiment with SW-620 colon was above 100 µM in each case.

With `CCOc1cc2c(cc1OC(C)=O)C(=O)CC[C@H]1C3CC[C@H](OC(C)=O)[C@@]3(C)CC[C@H]21` (stereo partly drawn), the TGI in the experiment with A498 renal, with ACHN renal, with SNB-19 CNS, in the experiment with SR leukemia, in the experiment on OVCAR-5 ovarian and in the experiment on SF-539 CNS was above 100 µM throughout. Further, the TGI with SF-268 CNS, with NCI-H226 lung, in the experiment on HOP-62 NSCLC, in the experiment with HCC-2998 colon, in the experiment with DU-145 prostate and with HCT-116 colon was above 100 µM throughout. Besides, the TGI with SK-MEL-28 melanoma and with SW-620 colon was above 100 µM in each case.
